Assay results as given in patent US20250127898A1, “PHOTODYNAMIC THERAPY AND DIAGNOSIS” (RMW CHO Group Limited, priority 2021, published 2025).
Structures can show the parent of a compound that is named as a salt. Where two headings read alike, the source gives them in different places. Where a SMILES comes first, the peptide text is derived from it. The star is where a group is joined. X1 = CCC1=C(C)c2cc3[nH]c(cc4nc(c(C)c5cc(C)c(cc1n2)[nH]5)[C@@H](CCC(=O)*)[C@@H]4C)c(C)c3CC

How the values were obtained:
[1] = tested on: TAA- or CCl4-induced acute liver injuries; conditions: mice; background statement; cited from earlier work
[2] = tested on: indomethacin-induced gastric lesions; conditions: rats; background statement; cited from earlier work
[3] = tested on: Human ovarian cancer cell line SKOV3; assay: Phototoxicity in SKOV3 cells after 660 nm laser or LED activation (AlamarBlue viability); type: cell-based
Procedure: Samples were stored at 4° C. protected from light. […] All data are shown as mean±SD (where appropriate). […] Laser and LED exposure induce an equivalent response in relation to phototoxicity. Following activation, cells were cultured for a further 24 hours. Media was then replaced with fresh media containing AlamarBlue, and % viable cells remaining assessed as above. Controls included cells treated with reduced chlorin analogues but not activated by laser light; cells without reduced chlorin analogue treatment but with laser light; and untreated controls. All measurements were made in quadruplicate.

[4] = tested on: Human ovarian cancer cell line SKOV3; assay: Inherent cytotoxicity (dark toxicity) in SKOV3 cells (AlamarBlue viability); type: cell-based
Procedure: Photosensitizers (e.g. chlorin analogue, chlorin e4 disodium (provided by Advanced Molecular Technologies, Scoresby) or Talaporfin sodium (purchased from Focus Bioscience cat #HY-16477-5MG)) were resuspended in 100% dimethylsulfoxide (DMSO) at a concentration of 5.5 mM. Samples were stored at 4° C. protected from light.
All data are shown as mean±SD (where appropriate).
Untreated cells were used as a control. […] All measurements were made in quadruplicate.

[5] = Estimated pKa of the carboxylic acid; type: physicochemical; conditions: estimate, no measurement described
Description: As PBS buffer (pH 7.4) is used in the experiments and the carboxylic acid in reduced phyllochlorin (and the same carboxy group in other related chlorins) is estimated to have a pKa of less than 5, reduced phyllochlorin in the PBS buffer will exist predominantly as the sodium and potassium salts with very little to no free acid.

C57BL/6 mice = assay: Acute toxicity after intraperitoneal injection into mice; type: in vivo; conditions: 5 mg/kg intraperitoneal, observed for 30 mins, prepared with 1% PVP in PBS+20 mM HEPES
Procedure: To assess acute toxicity, reduced phyllochlorin or chlorin e4 disodium (each prepared with 1% PVP in PBS+20 mM HEPES) were administered at a dose of 5 mg/kg to C57BL/6 mice by intraperitoneal injection.

[6] = Homo sapiens, SK-OV-3, light or radiation study, SKOV3 cells, 24 hours uptake, 660 nm laser, 50 mW/cm^2 for 5 mins (15 J/cm^2), viability 24 hours after activation, read-out: Phototoxicity μM (IC90)
[7] = SKOV3 cells, 24 hours uptake, 660 nm laser, 50 mW/cm^2 for 5 mins (15 J/cm^2), viability 24 hours after activation, read-out: Phototoxicity μM (IC90)
[8] = SKOV3 cells, 24 hours incubation, no light activation

Compound	IC90 [3, 6] [µM]	Dark toxicity μM (IC10) ([4]; human, 24 h) [µM]	IC90 [3, 7] [µM]	Dark toxicity μM (IC10) [4, 8] [µM]	other results
C=Cc1c(C)c2cc3nc(c(C)c4[nH]c(cc5nc(cc1[nH]2)C(C)=C5CC)c(C)c4C(=O)O)[C@@H](CCC(=O)O)[C@@H]3C [chlorin e4, Chlorin e4]	–	–	–	–	effect against TAA- or CCl4-induced acute liver injuries [1]: protective effect; effect against indomethacin-induced gastric lesions [2]: protective effect
CCC1=C(C)c2cc3[nH]c(cc4nc(c(C)c5cc(C)c(cc1n2)[nH]5)[C@@H](CCC(=O)N(C)CCCO[C@@H]1O[C@H](CO)[C@@H](O)[C@H](O)[C@H]1O)[C@@H]4C)c(C)c3CC [Compound 9, Reduced Phyllochlorin β-D-glucosyl-N-methylpropylamide]	0.098	12.780	–	–	–
Phyllochlorin free acid [reference compound]	–	–	0.43	13.50	–
Reduced Phyllochlorin Methyl Ester [Compound 6]	–	–	0.371	–	Dark toxicity μM (IC10) [4]: 11.650 µM
Reduced Phyllochlorin [Compound 1]	–	–	0.176	–	increase in phototoxicity of meso-compound compared to non-meso analogue ([3]; SKOV3 cells, vs phyllochlorin free acid / phyllochlorin sodium salt): 2.4 fold; pKa of the carboxylic acid (estimated) [5]: less than 5; Dark toxicity compared to non-meso analogue [4]: largely unaffected; Dark toxicity μM (IC10) [4]: 10.450 µM; clinical signs of acute toxicity (squinting, piloerection, loss of motility, general behaviour) (C57BL/6 mice): safe for injection
CCC1=C(C)c2cc3[nH]c(cc4nc(c(C)c5cc(C)c(cc1n2)[nH]5)[C@@H](CCC(=O)N(C)CCCCCCCCCC[P+](c1ccccc1)(c1ccccc1)c1ccccc1)[C@@H]4C)c(C)c3CC [Compound 21, Reduced Phyllochlorin ((methylamino)-10-decyl)triphenylphosphonium Chloride Propylamide]	0.022	1.465	–	–	–
CCC1=C(C)c2cc3[nH]c(cc4nc(c(C)c5cc(C)c(cc1n2)[nH]5)[C@@H](CCC(=O)N[C@@H](CCCCN)C(=O)N(C)C)[C@@H]4C)c(C)c3CC [Compound 31, Reduced Phyllochlorin N-Lysyl Dimethylamide Propylamide Hydrochloride]	–	8.850	–	–	IC90 ([3]; Homo sapiens, SK-OV-3, light or radiation study, SKOV3 cells, 24 hours uptake, 660 nm LED panel, 50 mW/cm^2 for 5 mins (15 J/cm^2), values marked *, read-out: Phototoxicity μM (IC90), measured by LED): 0.011 µM
C=Cc1c(C)c2cc3nc(c(C)c4[nH]c(cc5nc(cc1[nH]2)C(C)=C5CC)c(C)c4C(=O)O)[C@@H](CCC(=O)O)[C@@H]3C [Chlorin e4 disodium, chlorin e4 disodium, reference compound]	–	–	21.3	40.23	–
CCC1=C(C)c2cc3[nH]c(cc4nc(c(C)c5cc(C)c(cc1n2)[nH]5)[C@@H](CCC(=O)N[C@@H](CCCCN)C(=O)N[C@@H](CCCCN)C(=O)N[C@@H](CCCCN)C(=O)N[C@@H](CCCCN)C(=O)N[C@@H](CCCCN)C(=O)N(C)C)[C@@H]4C)c(C)c3CC [Compound 26, Reduced Phyllochlorin lysyl-lysyl-lysyl-lysyl-lysyl Dimethylamide Propylamide Pentahydrochloride] (X1-KKKKK-NMe2)	0.494	–	–	14.670	–
CCC1=C(C)c2cc3[nH]c(cc4nc(c(C)c5cc(C)c(cc1n2)[nH]5)[C@@H](CCC(=O)N(C)CCCOCCC[P+](c1ccccc1)(c1ccccc1)c1ccccc1)[C@@H]4C)c(C)c3CC [Compound 11]	0.003	4.347	–	–	IC90 ([3]; Homo sapiens, SK-OV-3, light or radiation study, SKOV3 cancer cells, laser or LED, read-out: phototoxicity IC90): ≤ 0.01 µM; orders of magnitude greater phototoxicity compared to Talaporfin sodium ([3]; SKOV3 cells, IC90 compared): 4 orders of magnitude
